Laboratory results from PubChem BioAssay AID248 (DTP/NCI, 2004).
Several values for one entry are separate records, joined by “and”; a condition that tells them apart may be missing. Equal values may be shown once. Toxic doses and inconclusive results are not listed. Cut-off read from the data, not from the text of the source: active = T/C of 150% or more; inactive = T/C below 125%.

Tested on: L1210 leukemia ip in BDF1 mice, survival T/C
Assay: NCI In Vivo Anticancer Drug Screen. Data for tumor model L1210 Leukemia (intraperitoneal) in B6D2F1 (BDF1) mice
Conditions: endpoint: mean survival time, higher = longer survival
Method in brief: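 Transplantable tumor model; survival measured in treated vs vehicle control mice. Value = treated/control.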

Measured: T/C

C=C(C)[C@H]1Cc2c(ccc3c2O[C@@H]2COc4cc(OC)c(OC)cc4[C@@H]2C3=O)O1
inactive: dose: 0.25 mg/kg/injection, schedule: Q01DX Z (ip), vehicle: other 95 % of control | dose: 0.5 mg/kg/injection, schedule: Q01DX Z (ip), vehicle: other 97 % of control | dose: 0.5 mg/kg/injection, schedule: Q02DX Z (ip), vehicle: water 96 % of control | dose: 0.75 mg/kg/injection, schedule: Q01DX Z (ip), vehicle: other 95 % of control | dose: 0.75 mg/kg/injection, schedule: Q02DX Z (ip), vehicle: water 101 % of control | dose: 1.0 mg/kg/injection, schedule: Q01DX Z (ip), vehicle: other 88 % of control | dose: 1.0 mg/kg/injection, schedule: Q02DX Z (ip), vehicle: water 102 % of control | dose: 2.0 mg/kg/injection, schedule: Q01DX015 (ip), vehicle: saline 97 % of control | dose: 2.0 mg/kg/injection, schedule: Q02DX Z (ip), vehicle: water 107 % of control | dose: 4.0 mg/kg/injection, schedule: Q01DX015 (ip), vehicle: saline 101 % of control | dose: 8.0 mg/kg/injection, schedule: Q01DX015 (ip), vehicle: saline 109 % of control | dose: 16.0 mg/kg/injection, schedule: Q01DX015 (ip), vehicle: saline 109 % of control

CCCCCCCCNP(=S)(NCCCCCCCC)NCCCCCCCC
inactive: dose: 50.0 mg/kg/injection, schedule: Q01DX001 (ip), vehicle: other 105 % of control | dose: 100.0 mg/kg/injection, schedule: Q01DX001 (ip), vehicle: other 96 % of control | dose: 200.0 mg/kg/injection, schedule: Q01DX001 (ip), vehicle: other 96 % of control | dose: 400.0 mg/kg/injection, schedule: Q01DX001 (ip), vehicle: other 94 % of control

C=CC[N+](CC=C)(CC=C)CCC[N+](CC=C)(CC=C)CC=C
inactive: dose: 12.5 mg/kg/injection, schedule: Q01DX009 (ip), vehicle: water 98 % of control | dose: 25.0 mg/kg/injection, schedule: Q01DX009 (ip), vehicle: water 98 % of control and 101 % of control | dose: 50.0 mg/kg/injection, schedule: Q01DX009 (ip), vehicle: water 102 % of control and 108 % of control

O=C1NC(=O)/C(=C\c2ccc3c(c2)OCO3)S1
inactive: dose: 2.5 mg/kg/injection, schedule: Q01DX009 (ip), vehicle: saline with Tween-80 96 % of control | dose: 5.0 mg/kg/injection, schedule: Q01DX009 (ip), vehicle: saline with Tween-80 91 % of control | dose: 10.0 mg/kg/injection, schedule: Q01DX009 (ip), vehicle: saline with Tween-80 89 % of control

Cc1ccc(NC(=O)N(CCCl)N=O)cc1NC(=O)N(CCCl)N=O
active: dose: 177.0 mg/kg/injection, schedule: Q01DX001 (ip), vehicle: carboxymethylcellulose (CMC) 154 % of control | dose: 266.0 mg/kg/injection, schedule: Q01DX001 (ip), vehicle: carboxymethylcellulose (CMC) 152 % of control | dose: 266.0 mg/kg/injection, schedule: Q01DX009 (ip), vehicle: carboxymethylcellulose (CMC) 152 % of control | dose: 400.0 mg/kg/injection, schedule: Q01DX001 (ip), vehicle: carboxymethylcellulose (CMC) 157 % of control | dose: 400.0 mg/kg/injection, schedule: Q01DX009 (ip), vehicle: carboxymethylcellulose (CMC) 195 % of control | dose: 600.0 mg/kg/injection, schedule: Q01DX001 (ip), vehicle: carboxymethylcellulose (CMC) 158 % of control | dose: 600.0 mg/kg/injection, schedule: Q01DX009 (ip), vehicle: carboxymethylcellulose (CMC) 202 % of control

O=C1C=C/C(=N/c2ccc(O)o2)c2ccccc21
inactive: dose: 150.0 mg/kg/injection, schedule: Q01DX001 (ip), vehicle: saline 100 % of control

C[Si](C)(O[Si](C)(C)C1C=CC=C1)C1C=CC=C1
inactive: dose: 12.5 mg/kg/injection, schedule: Q01DX001 (ip), vehicle: Klucel (hydroxypropylcellulose) (HPC) 91 % of control | dose: 25.0 mg/kg/injection, schedule: Q01DX001 (ip), vehicle: Klucel (hydroxypropylcellulose) (HPC) 91 % of control | dose: 50.0 mg/kg/injection, schedule: Q01DX001 (ip), vehicle: Klucel (hydroxypropylcellulose) (HPC) 88 % of control

CC(=O)NC1C(OC(C)=O)OC(COC(c2ccccc2)(c2ccccc2)c2ccccc2)C(OC(C)=O)C1OC(C)=O (stereo unspecified)
inactive: dose: 100.0 mg/kg/injection, schedule: Q01DX001 (ip), vehicle: saline 108 % of control | dose: 200.0 mg/kg/injection, schedule: Q01DX001 (ip), vehicle: saline 96 % of control | dose: 400.0 mg/kg/injection, schedule: Q01DX001 (ip), vehicle: saline 96 % of control
